Three compounds from US20100035926A1, “PYRAZOLE DERIVATIVES AS NON-STEROIDAL GLUCOCORTICOID RECEPTOR LIGANDS” (priority 2006, published 2010) can be followed below.

The target of this test is T1, Progesterone Receptor (Homo sapiens, UniProt P06401).
T1 construct: expressed in transfected cells; host or cells: CV-1 cells transduced with PRb-BacMam and MMTV-BacMam
T1 sequence (P06401 1-933): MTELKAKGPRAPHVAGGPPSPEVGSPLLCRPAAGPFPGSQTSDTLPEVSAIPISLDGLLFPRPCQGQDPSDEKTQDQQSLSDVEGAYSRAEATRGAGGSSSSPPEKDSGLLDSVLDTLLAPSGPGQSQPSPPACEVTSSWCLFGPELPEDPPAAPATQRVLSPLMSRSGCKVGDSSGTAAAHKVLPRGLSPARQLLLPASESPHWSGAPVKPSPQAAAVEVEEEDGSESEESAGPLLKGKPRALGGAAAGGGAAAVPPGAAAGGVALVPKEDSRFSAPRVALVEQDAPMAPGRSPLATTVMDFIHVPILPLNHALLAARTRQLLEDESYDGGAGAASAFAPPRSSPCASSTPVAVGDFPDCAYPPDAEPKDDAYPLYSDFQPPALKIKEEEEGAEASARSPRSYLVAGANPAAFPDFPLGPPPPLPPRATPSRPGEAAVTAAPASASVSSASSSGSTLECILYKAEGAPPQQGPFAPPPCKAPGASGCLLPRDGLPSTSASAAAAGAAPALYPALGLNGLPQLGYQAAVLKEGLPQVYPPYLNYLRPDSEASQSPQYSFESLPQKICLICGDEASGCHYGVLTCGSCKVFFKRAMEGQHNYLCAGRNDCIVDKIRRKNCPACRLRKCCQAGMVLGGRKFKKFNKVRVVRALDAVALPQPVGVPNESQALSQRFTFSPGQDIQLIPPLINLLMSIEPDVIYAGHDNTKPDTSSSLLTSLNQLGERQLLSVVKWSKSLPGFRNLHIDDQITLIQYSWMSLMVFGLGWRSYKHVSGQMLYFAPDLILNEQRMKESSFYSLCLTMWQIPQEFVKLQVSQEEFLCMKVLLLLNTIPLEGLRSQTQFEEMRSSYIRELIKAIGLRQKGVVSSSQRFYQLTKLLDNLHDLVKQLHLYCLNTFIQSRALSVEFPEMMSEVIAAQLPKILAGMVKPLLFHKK
The experiment in a line: Assay for Progesterone Receptor Agonist Activity (CV-1 cells, PRb-BacMam, MMTV-BacMam). It is filed as cell-based. The following applies: at least once in this assay, read-out: progesterone receptor agonist pEC50 (converted).

`CCN(CC(O)(CNC(=O)c1cnn(-c2ccc(F)cc2)c1N)C(F)(F)F)C(=O)c1cccc(F)c1F` (racemic) [Example 5 (racemic), 5-Amino-N-(2-{[[(2,3-difluorophenyl)carbonyl](ethyl)amino]methyl}-3,3,3-trifluoro-2-hydroxypropyl)-1-(4-fluorophenyl)-1H-pyrazole-4-carboxamide]: the EC50 was greater than 1000 nM.

`Nc1c(C(=O)NCC(O)(CN(CCF)C(=O)c2ccccc2)C(F)(F)F)cnn1-c1ccc(F)cc1` (racemic) [Example 1 (racemic), 5-Amino-1-(4-fluorophenyl)-N-(3,3,3-trifluoro-2-{[(2-fluoroethyl)(phenylcarbonyl)amino]methyl}-2-hydroxypropyl)-1H-pyrazole-4-carboxamide]: the EC50 is greater than 1000 nM.

For `Nc1c(C(=O)NCC(O)(CN(CCF)C(=O)c2ccccc2F)C(F)(F)F)cnn1-c1ccc(F)cc1` (racemic) [Example 2 (racemic), 5-Amino-1-(4-fluorophenyl)-N-[3,3,3-trifluoro-2-([(2-fluoroethyl)[(2-fluorophenyl)carbonyl]amino]methyl)-2-hydroxypropyl]-1H-pyrazole-4-carboxamide], the EC50 was greater than 1000 nM.
